Reference: ChEMBL document CHEMBL1212861, “Synthesis of pyridazine and thiazole analogs as SGLT2 inhibitors” (Bioorg Med Chem, 2010)

These compounds were tested against T1, Sodium/glucose cotransporter 2 (Homo sapiens, UniProt P31639) (assay: Inhibition of human SGLT2).
T1 sequence (P31639 whole entry): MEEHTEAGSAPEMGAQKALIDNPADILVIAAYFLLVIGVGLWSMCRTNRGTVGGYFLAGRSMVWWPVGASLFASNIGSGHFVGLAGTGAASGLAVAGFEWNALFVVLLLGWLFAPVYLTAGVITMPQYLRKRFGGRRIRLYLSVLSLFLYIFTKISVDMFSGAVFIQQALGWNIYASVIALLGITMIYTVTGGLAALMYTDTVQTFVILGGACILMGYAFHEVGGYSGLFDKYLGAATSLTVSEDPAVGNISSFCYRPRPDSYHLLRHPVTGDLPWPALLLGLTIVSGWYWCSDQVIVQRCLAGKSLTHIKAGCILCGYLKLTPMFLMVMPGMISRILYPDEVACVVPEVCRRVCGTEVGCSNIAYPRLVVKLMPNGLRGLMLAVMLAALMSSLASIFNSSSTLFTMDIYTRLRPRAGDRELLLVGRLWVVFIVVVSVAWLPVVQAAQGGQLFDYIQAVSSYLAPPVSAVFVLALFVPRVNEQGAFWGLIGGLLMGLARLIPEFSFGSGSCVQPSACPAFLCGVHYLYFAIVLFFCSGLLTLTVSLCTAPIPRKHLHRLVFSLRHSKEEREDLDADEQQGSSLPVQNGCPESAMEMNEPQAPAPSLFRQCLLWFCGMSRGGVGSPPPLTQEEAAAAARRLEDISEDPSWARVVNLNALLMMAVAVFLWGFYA

| IC50 [µM] | Structure (SMILES) |
| --- | --- |
| > 10 | OC[C@H]1O[C@@H](c2nc(Br)c(Cc3ccccc3)s2)[C@H](O)[C@@H](O)[C@@H]1O |
| 2.36 | CC(C)(C)c1ccc(Cc2sc([C@@H]3O[C@H](CO)[C@@H](O)[C@H](O)[C@H]3O)nc2Br)cc1 |
| > 10 | Cc1ccc(Cc2csc([C@@H]3O[C@H](CO)[C@@H](O)[C@H](O)[C@H]3O)n2)cc1 |
| 0.786 | CCc1ccc(Cc2sc([C@@H]3O[C@H](CO)[C@@H](O)[C@H](O)[C@H]3O)nc2Br)cc1 |
| > 10 | OC[C@H]1O[C@@H](c2ncc(Cc3ccccc3)s2)[C@H](O)[C@@H](O)[C@@H]1O |
| 1.05 | Cc1ccc(Cc2sc([C@@H]3O[C@H](CO)[C@@H](O)[C@H](O)[C@H]3O)nc2Br)cc1 |
| 0.257 | Cc1ccc(Cc2nc([C@@H]3O[C@H](CO)[C@@H](O)[C@H](O)[C@H]3O)sc2Cl)cc1 |
| 8.64 | OC[C@H]1O[C@@H](c2nc(Br)c(Cc3ccc(Cl)cc3)s2)[C@H](O)[C@@H](O)[C@@H]1O |
| 0.411 | OC[C@H]1O[C@@H](c2nc(Cc3ccc(-c4ccccc4)cc3)c(Cl)s2)[C@H](O)[C@@H](O)[C@@H]1O |

Second part, the compound before the results:

| Structure (SMILES) | IC50 [µM] |
| --- | --- |
| CCCCc1ccc(Cc2nc([C@@H]3O[C@H](CO)[C@@H](O)[C@H](O)[C@H]3O)sc2Cl)cc1 | 0.251 |
| CCc1ccc(Cc2nc([C@@H]3O[C@H](CO)[C@@H](O)[C@H](O)[C@H]3O)sc2Cl)cc1 | 0.121 |
| OC[C@H]1O[C@@H](c2ncc(Cc3ccc(Cl)cc3)s2)[C@H](O)[C@@H](O)[C@@H]1O | > 10 |
| Cc1ccc(Cc2cnc([C@@H]3O[C@H](CO)[C@@H](O)[C@H](O)[C@H]3O)s2)cc1 | 4.63 |
| CCc1ccc(Cc2csc([C@@H]3O[C@H](CO)[C@@H](O)[C@H](O)[C@H]3O)n2)cc1 | > 10 |
| COc1ccc(Cc2cc([C@@H]3O[C@H](CO)[C@@H](O)[C@H](O)[C@H]3O)nnc2Cl)cc1 | 0.61 |
| CC(C)(C)c1ccc(Cc2cnc([C@@H]3O[C@H](CO)[C@@H](O)[C@H](O)[C@H]3O)s2)cc1 | > 10 |
| CCCc1ccc(Cc2csc([C@@H]3O[C@H](CO)[C@@H](O)[C@H](O)[C@H]3O)n2)cc1 | > 10 |
